# According to patent publication EP0774465A1, “Penem derivatives and antimicrobial agents containing the same” (priority 1995, dated 1997):
# Like-named read-outs stand apart in the source and are kept apart here.
# Legend:
# [1] = tested on: MRSA 31; test: Antibacterial activity (MIC) against MRSA 31; type: cell-based, methicillin-resistant Staphylococcus aureus; details: for MIC: Staphylococcus aureus, MRSA, read-out: antibacterial activities (MIC)
# From the text: (§1) With respect to compounds (I) of the present invention obtained as described above, their general antibacterial activities and their antibacterial activities (MIC) against various methicillin-resistant strains of Staphylococcus aureus (methicillin-resistant Staphylococcus aureus: MRSA) were investigated. The results will be shown in Table 1, in which the test compounds are indicated by the numbers of their working examples to be described subsequently. Further, as the general antibacterial activities, those of Staphylococcus aureus 209P JC-1 and Escherichia coli NIHJ JC-2 were used.
# (§2) (The unit for the figures in the table is µg/mℓ.)
# [2] = tested on: MRSA 33; test: Antibacterial activity (MIC) against MRSA 33; type: cell-based, methicillin-resistant Staphylococcus aureus; details: for MIC: Staphylococcus aureus, MRSA, read-out: antibacterial activities (MIC)
# From the text: as §1, §2
# [3] = tested on: Staphylococcus aureus 209P JC-1; test: General antibacterial activity (MIC) against Staphylococcus aureus 209P JC-1; type: cell-based; details: for MIC: Staphylococcus aureus, read-out: antibacterial activities (MIC)
# From the text: as §1, §2
# [4] = tested on: Escherichia coli NIHJ JC-2; test: General antibacterial activity (MIC) against Escherichia coli NIHJ JC-2; type: cell-based; details: for MIC: Escherichia coli; for antibacterial activities (MIC): NIHJ JC-2, 10^6 cfu/mℓ
# From the text: as §1, §2
# [5] = NIHJJC2, NIHJ JC-2, 10^6 cfu/mℓ, read-out: antibacterial activities (MIC)
Molecule,"MIC ([3]; 209P JC-1, 10^6 cfu/mℓ)","MIC [4, 5]","MIC ([1]; MRSA 31, 10^6 cfu/mℓ)","MIC ([2]; MRSA 33, 10^6 cfu/mℓ)",further results
"C[C@H](F)[C@H]1C(=O)N2C(C(=O)O)=C(SC3CCN(c4ccccc4)C3)S[C@H]12 (single isomer, unassigned) [Ex. 107 (Isomer A)]",0.1 µg/mL,> 25 µg/mL,,,"antibacterial activities (MIC) ([1]; MRSA 31, 10^6 cfu/mℓ): 1.56 µg/mL; antibacterial activities (MIC) ([2]; MRSA 33, 10^6 cfu/mℓ): 1.56 µg/mL"
"C[C@H](F)[C@H]1C(=O)N2C(C(=O)O)=C(SC3CCN(c4ccccc4)C3)S[C@H]12 (single isomer, unassigned) [Ex. 107 (Isomer B)]",,,,,"antibacterial activities (MIC) ([1]; MRSA 31, 10^6 cfu/mℓ): 3.13 µg/mL; antibacterial activities (MIC) ([2]; MRSA 33, 10^6 cfu/mℓ): 3.13 µg/mL; antibacterial activities (MIC) ([3]; 209P JC-1, 10^6 cfu/mℓ): 0.1 µg/mL; antibacterial activities (MIC) [4]: 50 µg/mL"
"C[C@H](O)[C@@H]1C(=O)N2C(C(=O)O)=C(SCC(=O)NCc3ccccc3)S[C@H]12 [Ex. 13, (5R,6R)-2-(N-benzylcarbamoylmethyl)thio-6-((S)-1-hydroxyethyl)penem-3-carboxylic acid]",0.39 µg/mL,3.13 µg/mL,12.5 µg/mL,12.5 µg/mL,
"CSC1=C(C(=O)O)N2C(=O)[C@@H]([C@H](C)O)[C@H]2S1 [Ex. 40, (5R,6R)-6-((S)-1-hydroxyethyl)-2-methylthiopenem-3-carboxylic acid]",0.39 µg/mL,0.39 µg/mL,12.5 µg/mL,12.5 µg/mL,
"CCSC1=C(C(=O)O)N2C(=O)[C@@H]([C@H](C)O)[C@H]2S1 [Ex. 41, (5R,6R)-6-((S)-1-hydroxyethyl)-2-ethylthiopenem-3-carboxylic acid]",0.2 µg/mL,0.2 µg/mL,12.5 µg/mL,12.5 µg/mL,
"C[C@H](O)[C@@H]1C(=O)N2C(C(=O)O)=C(SCc3ccccc3)S[C@H]12 [Ex. 42, (5R,6R)-6-((S)-1-hydroxyethyl)-2-benzylthiopenem-3-carboxylic acid]",0.1 µg/mL,6.25 µg/mL,3.13 µg/mL,3.13 µg/mL,
"C[C@H](O)[C@@H]1C(=O)N2C(C(=O)O)=C(SCCc3ccccc3)S[C@H]12 [Ex. 43, (5R,6R)-6-((S)-1-hydroxyethyl)-2-phenethylthiopenem-3-carboxylic acid]",0.2 µg/mL,12.5 µg/mL,6.25 µg/mL,6.25 µg/mL,
"CCCSC1=C(C(=O)O)N2C(=O)[C@@H]([C@H](C)O)[C@H]2S1 [Ex. 46, (5R,6R)-6-((S)-1-hydroxyethyl)-2-propylthiopenem-3-carboxylic acid]",0.39 µg/mL,0.78 µg/mL,12.5 µg/mL,12.5 µg/mL,
"CC(C)SC1=C(C(=O)O)N2C(=O)[C@@H]([C@H](C)O)[C@H]2S1 [Ex. 47, (5R,6R)-6-((S)-1-hydroxyethyl)-2-(1-methylethyl)thiopenem-3-carboxylic acid]",0.2 µg/mL,0.2 µg/mL,12.5 µg/mL,12.5 µg/mL,
"C[C@H](O)[C@@H]1C(=O)N2C(C(=O)O)=C(SCCF)S[C@H]12 [Ex. 48, (5R,6R)-6-((S)-1-hydroxyethyl)-2-(2-fluoroethyl)thiopenem-3-carboxylic acid]",,,,,"MIC [1]: 12.5 µg/mL; MIC [2]: 12.5 µg/mL; MIC ([3]; 209P): 0.2 µg/mL; MIC ([4]; NIHJJC2, read-out: antibacterial activities (MIC)): 0.1 µg/mL"
"C[C@H](O)[C@@H]1C(=O)N2C(C(=O)O)=C(SC3Cc4ccccc4C3)S[C@H]12 [Ex. 71, (5R,6R)-6-((S)-1-hydroxyethyl)-2-(2-indanyl)thiopenem-3-carboxylic acid]",0.05 µg/mL,6.25 µg/mL,3.13 µg/mL,1.56 µg/mL,
"C[C@H](O)[C@@H]1C(=O)N2C(C(=O)O)=C(SCCc3ccccn3)S[C@H]12 [Ex. 73, (5R,6R)-6-((S)-1-hydroxyethyl)-2-[2-(2-pyridyl)ethyl]thiopenem-3-carboxylic acid]",0.05 µg/mL,0.78 µg/mL,6.25 µg/mL,6.25 µg/mL,
"C[C@H](O)[C@@H]1C(=O)N2C(C(=O)O)=C(SCc3ccc4ccccc4c3)S[C@H]12 [Ex. 76, (5R,6R)-6-((S)-1-hydroxyethyl)-2-(2-naphthyl)methylthiopenem-3-carboxylic acid]",0.1 µg/mL,12.5 µg/mL,3.13 µg/mL,3.13 µg/mL,
"C[C@H](O)[C@@H]1C(=O)N2C(C(=O)O)=C(S[C@H]3CCN(CCF)C3)S[C@H]12 [Ex. 79, (5R,6R)-6-((S)-l-hydroxyethyl)-2-[(S)-1-(2-fluoroethyl)pyrrolidin-3-yl]thiopenem-3-carboxylic acid]",0.1 µg/mL,0.1 µg/mL,6.25 µg/mL,6.25 µg/mL,
"C[C@H](O)[C@@H]1C(=O)N2C(C(=O)O)=C(SC3CCc4ccccc43)S[C@H]12 (stereo partly drawn) [Ex. 81, (5R,6R)-6-((S)-1-hydroxyethyl)-2-(1-indanyl)thiopenem-3-carboxylic acid]",0.1 µg/mL,6.25 µg/mL,3.13 µg/mL,3.13 µg/mL,
"C[C@H](O)[C@@H]1C(=O)N2C(C(=O)O)=C(S[C@H]3CCN(CC(=O)c4ccccc4)C3)S[C@H]12 [Ex. 88, (5R,6R)-6-((S)-1-hydroxyethyl)-2-[(S)-1-(2-oxo-2-phenylethyl)pyrrolidin-3-ylthio]penem-3-carboxylic acid]",0.2 µg/mL,0.39 µg/mL,6.25 µg/mL,6.25 µg/mL,
"CC(=N)N1CC[C@H](SC2=C(C(=O)O)N3C(=O)[C@@H]([C@H](C)O)[C@H]3S2)C1 [Ex. 89, (5R,6R)-6-((S)-1-hydroxyethyl)-2-[(S)-1-(1-iminoethyl)pyrrolidin-3-ylthio]penem-3-carboxylic acid]",0.1 µg/mL,0.39 µg/mL,6.25 µg/mL,6.25 µg/mL,
"C[C@H](O)[C@@H]1C(=O)N2C(C(=O)O)=C(S[C@@H]3CN[C@H](CO)C3)S[C@H]12 [Ex. 94, (5R,6R)-6-((S)-1-hydroxyethyl)-2-[(2S,4S)-2-hydroxymethylpyrrolidin-4-ylthio]penem-3-carboxylic acid]",0.1 µg/mL,0.2 µg/mL,6.25 µg/mL,6.25 µg/mL,
"CC(=N)N1CC[C@H](SC2=C(C(=O)O)N3C(=O)[C@H]([C@H](C)F)[C@H]3S2)C1 [Ex. 106, (5R,6R)-6-((S)-1-fluoroethyl)-2-[(S)-1-(1-iminoethyl)pyrrolidin-3-ylthio]penem-3-carboxylic acid]",0.05 µg/mL,1.56 µg/mL,3.13 µg/mL,3.13 µg/mL,
"(5R,6R)-6-((S)-1-fluoroethyl)-2-methylthiopenem-3-carboxylic acid [Ex. 99]",,,,,"antibacterial activities (MIC) ([1]; MRSA 31, 10^6 cfu/mℓ): 6.25 µg/mL; antibacterial activities (MIC) ([2]; MRSA 33, 10^6 cfu/mℓ): 6.25 µg/mL; antibacterial activities (MIC) ([3]; 209P JC-1, 10^6 cfu/mℓ): 0.1 µg/mL; antibacterial activities (MIC) [4]: 0.78 µg/mL"
